Measurements from PMC11284788, “NN1213 – A Potent, Long-Acting, and Selective Analog of Human Amylin” (Journal of Medicinal Chemistry, 2024).
Values after ≈ are worked out from the molar mass of the structure shown. Where two headings read alike, the source gives them in different places. Numbered stars: 1 amine (or outer) side, 2 acyl side, 3 side chain; on linkers, the order of the positions; unused ones are H or OH. Bridge positions count the residues as written; N and C are the ends. Side chains are listed from the residue outwards. Peptide text beside a SMILES is read from it. * marks the point of attachment. C20 diacid = O=C(O)CCCCCCCCCCCCCCCCCCC(=O)*; γGlu = O=C(O)[C@H](CCC(=O)[*:2])N[*:1]

Legend:
[1] = molecular target: T1, hAMY3R (Homo sapiens, UniProt O60896+P30988); experiment: cAMP-responsive element luciferase reporter assay, human AMY3R; assay type: cell-based; parameters: expressed in transfected cells; conditions: for ratio hCTR/hAMY3R: ratio of luciferase EC50 values; for EC50: luciferase (human receptor assay)
T1 sequence (P30988 25-474): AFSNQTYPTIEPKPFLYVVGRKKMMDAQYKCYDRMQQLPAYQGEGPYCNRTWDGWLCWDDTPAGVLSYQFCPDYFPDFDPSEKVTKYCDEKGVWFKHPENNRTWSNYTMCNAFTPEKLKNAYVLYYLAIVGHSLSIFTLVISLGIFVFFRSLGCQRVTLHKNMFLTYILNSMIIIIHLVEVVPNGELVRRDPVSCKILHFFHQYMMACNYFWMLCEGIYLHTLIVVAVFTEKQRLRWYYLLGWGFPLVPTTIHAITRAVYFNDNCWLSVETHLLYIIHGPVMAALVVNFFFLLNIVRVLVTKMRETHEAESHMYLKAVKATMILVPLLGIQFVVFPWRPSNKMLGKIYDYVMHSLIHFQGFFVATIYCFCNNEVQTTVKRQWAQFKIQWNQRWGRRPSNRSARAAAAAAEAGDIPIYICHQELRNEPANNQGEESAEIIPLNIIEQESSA
T1 sequence (O60896 24-148 partner): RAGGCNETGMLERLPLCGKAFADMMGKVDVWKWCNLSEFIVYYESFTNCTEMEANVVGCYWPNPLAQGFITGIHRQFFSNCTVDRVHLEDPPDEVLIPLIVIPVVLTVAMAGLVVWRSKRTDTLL

[2] = Solubility versus pH profile
[3] = molecular target: T1, hAMY3R; experiment: scintillation proximity binding assay, hAMY3R membranes; parameters: expressed in transfected cells; host or cells: BHK tk-ts 13, transient co-transfection; membranes for the SPA, whole cells for the species-specific assays; conditions: for ratio hCTR/hAMY3R: ratio of binding IC50 values
Protocol: The apparent binding affinities were determined using a scintillation proximity assay with beads from PerkinElmer and cell membranes containing the AMY3R or CTRs. […] Membranes were harvested and membranes were prepared and kept at −80 °C until use. The assay was performed in a 384-well Optiplate (PerkinElmer). Membranes were mixed with scintillation proximity assay beads in a 1:1 ratio. […] Samples were analyzed on a TopCounter (Packard). The IC50 values were calculated using GraphPad Prism. See Supporting Information S7: SAR Screening Assay Methods (Binding Assays (Human and Rat)) for more information.
Binding Assays (Human and Rat). Brief descriptions of the methods used to determine binding affinities for SAR analysis are described below. Curves and IC50 values were plotted and calculated in GraphPad Prism using nonlinear regression (one site binding competition analysis), with pIC50 values […]
values were used to calculate the binding affinity ratios in order to express the selectivity of compounds for the AMY3R versus the CTR.
CTR Binding Assay. The binding assay was performed using scintillation proximity assay (SPA) beads (RPNQ0001) from PerkinElmer and cell membranes containing either the hCTR or rCTR. BHK […]
(§1) Membranes were prepared in the following way: the cells were rinsed with PBS and incubated with Versene for approximately 5 min before harvesting. The cells were flushed with PBS and the cell-suspension was centrifuged for 5 min at 1000 rpm. Cells were homogenized (Ultra Turrax) in a buffer […]
containing 20 mM Na-HEPES and 0.1 mM EDTA (pH 7.4, buffer 2). The resulting pellet was re-suspended in buffer 2 and protein concentration was measured (BCA protein assay, Pierce). The homogenate was kept cold during the whole procedure. The membranes were stored at –80 °C until […]
The binding assay was performed in a 384-well Optiplate (PerkinElmer) in a total volume of 40 μL.
Membranes were mixed with SPA beads in a 1:1 ratio. […]
mg/well. Test compounds were dissolved in DMSO and further diluted in assay buffer (50 mM HEPES, pH 7.4, 1 mM CaCl2, 5 mM MgCl2, 0.1% ovalbumin, and 0.02% Tween-20).
Calcitonin (NEX422 PerkinElmer) was dissolved in assay buffer and added to the Optiplate at a final […]
prior to centrifugation (1500 rpm, 10 min). Samples were analyzed on TopCounter (Packard).
AMY3R Binding Assay. The binding assay was performed using SPA beads (RPNQ0001) from PerkinElmer and cell membranes containing either the hAMY3R or rAMY3R. BHK tk-ts 13 cells were […]
as §1, with “and cultured as described above. Membranes” for “Membranes”, “buffer containing 20 mM Na-HEPES and 10 mM EDTA (pH 7.4), and” for “buffer”
The resulting pellet was re-suspended, homogenized, and
7.4, buffer 2). The resulting pellet was re-suspended in buffer 2 and protein concentration was measured (BCA protein assay, Pierce). The homogenate was kept cold during the whole procedure.
The membranes were stored at –80 °C until use.
Membranes were mixed with SPA beads in a 1:1 ratio. The final concentration of SPA beads was 0.05 mg/well. Test compounds were dissolved in DMSO and further diluted in assay buffer (50 mM […]
rAMY (NEX448 PerkinElmer) was dissolved in assay buffer and added to the Optiplate at a final

[4] = bis-tris-propane buffer, pH 6, aqueous buffer
[5] = bis-tris-propane buffer, pH 6.5, aqueous buffer
[6] = bis-tris-propane buffer, pH 7, aqueous buffer
[7] = bis-tris-propane buffer, pH 7.5, aqueous buffer
[8] = bis-tris-propane buffer, pH 8, aqueous buffer
[9] = lactate buffer, pH 4, aqueous buffer
[10] = lactate buffer, pH 5, aqueous buffer
[11] = Tables S12 and S14, read-out: hAMY3R pEC50 (converted)
[12] = BHK cells stably expressing hCTR+RAMP3 and CRE-luciferase, 3 h, 37 °C, 10% FBS, read-out: hAMY3R EC50
[13] = SPA binding assay, Tables S13 and S15, read-out: hAMY3R pIC50 (converted)
[14] = SPA, BHK cell membranes, 125I-rat amylin, 120 min 25 °C, read-out: hAMY3R IC50

solubility kinetic [2, 4] [µM] | solubility kinetic [2, 5] [µM] | solubility kinetic [2, 6] [µM] | solubility kinetic [2, 7] [µM] | solubility kinetic [2, 8] [µM] | solubility kinetic [2, 9] [µM] | solubility kinetic [2, 10] [µM] | ratio hCTR/hAMY3R [3] | EC50 [1, 11] [nM] | EC50 [1, 12] [nM] | ratio hCTR/hAMY3R [1] | IC50 [3, 13] [nM] | IC50 [3, 14] [nM] | Compound | ratio hCTR/hAMY3R ([1]; listed as 21)
1 (≈ 4.55 µg/mL) | 1 (≈ 4.55 µg/mL) | 1 (≈ 4.55 µg/mL) | 1 (≈ 4.55 µg/mL) | 2 (≈ 9.11 µg/mL) | 1 (≈ 4.55 µg/mL) | 1 (≈ 4.55 µg/mL) | 14 | 0.316 | 0.319 | 9.4 | 5.13 | 5.09 | CC[C@H](C)[C@H](NC(=O)[C@@H]1CCCN1C(=O)CNC(=O)[C@H](Cc1ccccc1)NC(=O)[C@H](CC(N)=O)NC(=O)[C@@H]1CCCN1C(=O)[C@H](CO)NC(=O)[C@H](CO)NC(=O)[C@H](Cc1c[nH]cn1)NC(=O)[C@H](CCCNC(=N)N)NC(=O)[C@H](CC(C)C)NC(=O)[C@H](Cc1ccccc1)NC(=O)[C@H](CC(=O)O)NC(=O)[C@H](C)NC(=O)[C@H](CC(C)C)NC(=O)[C@H](CCCNC(=N)N)NC(=O)[C@H](CCC(N)=O)NC(=O)[C@@H](NC(=O)[C@H](C)NC(=O)[C@@H]1CSSC[C@H](NC(=O)[C@@H](N)CCCCNC(=O)CC[C@H](NC(=O)CC[C@H](NC(=O)CCCCCCCCCCCCCCCCCCC(=O)O)C(=O)O)C(=O)O)C(=O)N[C@@H](CC(N)=O)C(=O)N[C@@H]([C@@H](C)O)C(=O)N[C@@H](C)C(=O)N[C@@H]([C@@H](C)O)C(=O)N1)[C@@H](C)O)C(=O)N[C@@H](CC(C)C)C(=O)N[C@@H](CO)C(=O)N[C@@H](CO)C(=O)N[C@H](C(=O)N[C@@H](CC(N)=O)C(=O)N[C@H](C(=O)NCC(=O)N[C@@H](CO)C(=O)N[C@@H](CC(=O)O)C(=O)N[C@H](C(=O)N[C@@H](Cc1ccc(O)cc1)C(N)=O)[C@@H](C)O)C(C)C)[C@@H](C)O [Peptide 3] (H-K([γGlu-γGlu-C20 diacid])CNTATCATQRLADFLRHSSPNFGPILSSTNVGSDTY-NH2; disulfide 2-7) | –
≥ 200 | ≥ 200 | ≥ 200 | ≥ 200 | ≥ 200 | ≥ 200 | 172 (≈ 776 µg/mL) | 27 | 0.219 | 0.219 | 12 | 1.12 | 1.12 | CC(C)C[C@H](NC(=O)[C@H](CCCNC(=N)N)NC(=O)[C@H](CCC(N)=O)NC(=O)[C@@H](NC(=O)[C@H](C)NC(=O)[C@@H]1CSSC[C@H](NC(=O)[C@@H](N)CCCCNC(=O)CC[C@H](NC(=O)CC[C@H](NC(=O)CCCCCCCCCCCCCCCCCCC(=O)O)C(=O)O)C(=O)O)C(=O)N[C@@H](CC(N)=O)C(=O)N[C@@H]([C@@H](C)O)C(=O)N[C@@H](C)C(=O)N[C@@H]([C@@H](C)O)C(=O)N1)[C@@H](C)O)C(=O)N[C@@H](C)C(=O)N[C@@H](CC(=O)O)C(=O)N[C@@H](Cc1ccccc1)C(=O)N[C@@H](CC(C)C)C(=O)N[C@@H](CCCNC(=N)N)C(=O)N[C@@H](Cc1c[nH]cn1)C(=O)N[C@@H](CO)C(=O)N[C@@H](CO)C(=O)N1CCC[C@H]1C(=O)N[C@@H](CC(N)=O)C(=O)N[C@@H](Cc1ccccc1)C(=O)NCC(=O)N[C@@H](C)C(=O)N1CCC[C@H]1C(=O)N[C@@H](CC(C)C)C(=O)N[C@@H](CO)C(=O)N[C@@H](CO)C(=O)N[C@H](C(=O)N[C@@H](CC(N)=O)C(=O)N[C@H](C(=O)NCC(=O)N[C@@H](CO)C(=O)N[C@@H](CC(=O)O)C(=O)N[C@H](C(=O)N[C@@H](Cc1ccc(O)cc1)C(N)=O)[C@@H](C)O)C(C)C)[C@@H](C)O [Peptide 5] (H-K([γGlu-γGlu-C20 diacid])CNTATCATQRLADFLRHSSPNFGAPLSSTNVGSDTY-NH2; disulfide 2-7) | –

Compound | solubility kinetic [2, 4] [µM] | solubility kinetic [2, 5] [µM] | solubility kinetic [2, 6] [µM] | solubility kinetic [2, 7] [µM] | solubility kinetic [2, 8] [µM] | solubility kinetic [2, 9] [µM] | solubility kinetic [2, 10] [µM] | ratio hCTR/hAMY3R [3] | EC50 [1, 11] [nM] | EC50 [1, 12] [nM] | ratio hCTR/hAMY3R [1] | IC50 [3, 13] [nM] | IC50 [3, 14] [nM] | ratio hCTR/hAMY3R ([1]; listed as 21)
CC[C@H](C)[C@H](NC(=O)[C@H](C)NC(=O)CNC(=O)[C@H](Cc1ccccc1)NC(=O)[C@H](CC(N)=O)NC(=O)[C@@H]1CCCN1C(=O)[C@H](CO)NC(=O)[C@H](CO)NC(=O)[C@H](Cc1c[nH]cn1)NC(=O)[C@H](CCCNC(=N)N)NC(=O)[C@H](CC(C)C)NC(=O)[C@H](Cc1ccccc1)NC(=O)[C@H](CC(=O)O)NC(=O)[C@H](C)NC(=O)[C@H](CC(C)C)NC(=O)[C@H](CCCNC(=N)N)NC(=O)[C@H](CCC(N)=O)NC(=O)[C@@H](NC(=O)[C@H](C)NC(=O)[C@@H]1CSSC[C@H](NC(=O)[C@@H](N)CCCCNC(=O)CC[C@H](NC(=O)CC[C@H](NC(=O)CCCCCCCCCCCCCCCCCCC(=O)O)C(=O)O)C(=O)O)C(=O)N[C@@H](CC(N)=O)C(=O)N[C@@H]([C@@H](C)O)C(=O)N[C@@H](C)C(=O)N[C@@H]([C@@H](C)O)C(=O)N1)[C@@H](C)O)C(=O)N1CCC[C@H]1C(=O)N[C@@H](CO)C(=O)N[C@@H](CO)C(=O)N[C@H](C(=O)N[C@@H](CC(N)=O)C(=O)N[C@H](C(=O)NCC(=O)N[C@@H](CO)C(=O)N[C@@H](CCCNC(=N)N)C(=O)N[C@H](C(=O)N[C@@H](Cc1ccc(O)cc1)C(N)=O)[C@@H](C)O)C(C)C)[C@@H](C)O [NN1213] | ≥ 200 | ≥ 200 | 155 (≈ 706 µg/mL) | 106 (≈ 483 µg/mL) | 110 (≈ 501 µg/mL) | ≥ 200 | ≥ 200 | 74 | – | – | – | – | – | 29
